Some test systems named below: RXF 393 renal; NCI-H460 lung; NCI/ADR-RES ovarian; PC-3 prostate; OVCAR-5 ovarian; MALME-3M melanoma; T-47D breast; HS 578T breast; NCI-H226 lung; A498 renal.
Holding throughout (assay): inhibition of tumour cell growth, NCI panel, 48 h

In PubChem BioAssay (NCI) one finds TGI and GI50 data, which are given here for 14 compounds.

Where “and” joins values, the source holds several entries; their conditions need not be identical. Equal values may be shown once.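 Growth conditions: 96-well plates. Treatment: test compound, 48 hours, 5 concentrations. Analysis: linear interpolation between bracketing concentrations; unreached endpoints set to highest concentration. The concentration for 50% growth inhibition is given as GI50. TGI is the concentration that stops growth completely.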 Where only a bound is given, the exact number is not on record here.

Regarding `CC1(C)CC(O)C(C)(C)[C@@H](O)C1` (stereo not given in full), the TGI in the experiment with RXF 393 renal, in the experiment on NCI-H460 lung, with NCI/ADR-RES ovarian, in the experiment on PC-3 prostate, with OVCAR-5 ovarian and with MALME-3M melanoma was more than 100 µM in each case. The TGI in the experiment with T-47D breast, with HS 578T breast and with NCI-H226 lung was more than 100 µM each time.
For the compound `CCCCOC(=O)N1CCN(/[N+]([O-])=N/Oc2ccc([N+](=O)[O-])cc2[N+](=O)[O-])CC1`, the GI50 with RXF 393 renal is 17.6 µM; in the experiment with NCI-H460 lung, 4.94 µM; in the experiment on NCI/ADR-RES ovarian, 3.43 µM; in the experiment with PC-3 prostate, 14 µM; in the experiment with OVCAR-5 ovarian it was 3.53 µM; with HS 578T breast, 20.9 µM. For the same compound, in the experiment with NCI-H226 lung, the GI50 was 2.54 µM. The TGI is 40.4 µM in the experiment on RXF 393 renal; more than 100 µM in the experiment with NCI-H460 lung; more than 100 µM with NCI/ADR-RES ovarian; 30.8 µM in the experiment on PC-3 prostate; 11.8 µM in the experiment on OVCAR-5 ovarian; more than 100 µM with HS 578T breast. This compound showed a TGI with NCI-H226 lung of 5.95 µM.
Consider `Cc1c(C(=O)Nc2ccccc2)sc2ncn(Cc3cccc(Cl)c3)c(=O)c12`, for which the GI50 in the experiment with RXF 393 renal was 24.8 µM; in the experiment on NCI-H460 lung, more than 100 µM; in the experiment on NCI/ADR-RES ovarian it was 25.7 µM; in the experiment on PC-3 prostate, 16.5 µM; in the experiment on OVCAR-5 ovarian it was 27 µM; in the experiment with T-47D breast, 42.9 µM. In addition, the GI50 is 42.6 µM with HS 578T breast and 10.6 µM in the experiment with NCI-H226 lung. For the same compound, the TGI in the experiment with RXF 393 renal was 71.4 µM; with NCI-H460 lung, more than 100 µM; in the experiment with NCI/ADR-RES ovarian, more than 100 µM; in the experiment on PC-3 prostate it was 49.6 µM; in the experiment with OVCAR-5 ovarian, 94.5 µM; with T-47D breast, more than 100 µM. The values for the TGI in the experiment with HS 578T breast and with NCI-H226 lung were more than 100 µM and 41.6 µM, respectively.
`NC(=O)CN(CC(N)=O)C(N)=O`: the TGI with A498 renal, with RXF 393 renal, in the experiment with NCI-H460 lung, in the experiment with OVCAR-5 ovarian, in the experiment with MALME-3M melanoma and in the experiment with NCI-H226 lung was more than 100 µM throughout.
For the compound `CCOC(=O)CCC(NC(=O)OCc1ccccc1)C(=O)NC(CCC(=O)OCC)C(=O)NC(CCC(=O)OCC)C(=O)NC(CCC(=O)OCC)C(=O)NC(CCC(=O)OCC)C(=O)NC(CCC(=O)OCC)C(=O)NC(CCC(=O)OCC)C(=O)OCC` (stereo not given), the TGI with A498 renal, with NCI-H460 lung, in the experiment with PC-3 prostate, with OVCAR-5 ovarian, with MALME-3M melanoma and with T-47D breast was more than 100 µM throughout. Besides, the TGI in the experiment with NCI-H226 lung is more than 100 µM.
In the case of `COc1cc(OC)c(C/C=C/c2ccccc2)cc1O`, the TGI with A498 renal turned out to be 28.8 µM; with NCI-H460 lung, 31 µM; in the experiment with NCI/ADR-RES ovarian, 31.4 µM; in the experiment on PC-3 prostate it was 35.6 µM; with OVCAR-5 ovarian, 69.9 µM; in the experiment on MALME-3M melanoma it was 30.5 µM. Further, the TGI was found to be 23.7 µM with T-47D breast, 47.3 µM in the experiment on HS 578T breast and 33.8 µM in the experiment on NCI-H226 lung.
As to `C[C@@]12CCC(=O)c3coc(c31)C(=O)c1cc3c(cc12)C(=O)C=CC3=O`, the TGI with A498 renal is more than 100 µM; in the experiment with RXF 393 renal it was > 1 µM and 37.1 µM; in the experiment on NCI-H460 lung, more than 70.9 µM; in the experiment on OVCAR-5 ovarian, > 1 µM and 36 µM; in the experiment with MALME-3M melanoma it was > 1 µM and 31.3 µM; in the experiment with NCI-H226 lung, > 1 µM and 86 µM. The GI50 in the experiment with RXF 393 renal, in the experiment on NCI-H460 lung, in the experiment with OVCAR-5 ovarian, with MALME-3M melanoma and in the experiment with NCI-H226 lung was more than 1 µM in each case.
As to `CC1=NN(C(=O)c2ccccc2O)C(=O)/C1=C/c1ccc(O)cc1`, the TGI in the experiment on NCI-H460 lung is more than 100 µM; in the experiment with NCI/ADR-RES ovarian, 28.3 µM; in the experiment with PC-3 prostate, more than 100 µM; with OVCAR-5 ovarian it was more than 100 µM; with MALME-3M melanoma, more than 100 µM; with T-47D breast it was more than 100 µM. For the same compound, the TGI with NCI-H226 lung is 41.2 µM.
`O=[N+]([O-])c1ccc(-n2nnc(C3=NCCN3)c2-c2ccccc2)cc1`: the TGI in the experiment on A498 renal, with RXF 393 renal, in the experiment with NCI-H460 lung, with OVCAR-5 ovarian, with MALME-3M melanoma and in the experiment on NCI-H226 lung was more than 100 µM throughout.
Take `CC(=O)[CH-]C(=O)c1ccccc1.CC(=O)[CH-]C(=O)c1ccccc1.CC[O-].CC[O-].[Hf+4]`: the GI50 with A498 renal, in the experiment with RXF 393 renal, in the experiment with NCI-H460 lung, in the experiment with OVCAR-5 ovarian, in the experiment with MALME-3M melanoma and in the experiment on NCI-H226 lung was more than 100 µM each time. Moreover, the TGI with A498 renal, with RXF 393 renal, in the experiment with NCI-H460 lung, with OVCAR-5 ovarian, in the experiment with MALME-3M melanoma and in the experiment on NCI-H226 lung was more than 100 µM each time.
`COc1ccc(C/C(C)=C(/c2ccc(OCCN3CCCCC3)cc2)c2ccc(OC(=O)NCc3ccccc3)cc2)cc1`: the GI50 in the experiment with A498 renal is 0.398 µM; in the experiment with RXF 393 renal it was 0.435 µM; in the experiment with NCI-H460 lung, 0.412 µM; in the experiment on NCI/ADR-RES ovarian, 0.443 µM; with PC-3 prostate it was 0.398 µM; in the experiment with OVCAR-5 ovarian, 0.415 µM. Besides, the GI50 was 0.395 µM in the experiment with MALME-3M melanoma, 0.303 µM in the experiment with T-47D breast and 0.441 µM in the experiment on NCI-H226 lung. Besides, the TGI turned out to be 0.744 µM with A498 renal; 0.876 µM in the experiment on RXF 393 renal; 0.775 µM with NCI-H460 lung; 0.893 µM in the experiment on NCI/ADR-RES ovarian; 0.778 µM in the experiment with PC-3 prostate; 0.78 µM in the experiment on OVCAR-5 ovarian. In addition, the TGI with MALME-3M melanoma was determined as 0.776 µM; in the experiment with T-47D breast, 0.746 µM; with NCI-H226 lung, 0.868 µM.
Consider `COC(C(=O)NN)c1ccccc1` (stereo not given), for which the TGI with RXF 393 renal, in the experiment with NCI-H460 lung, in the experiment on NCI/ADR-RES ovarian, with PC-3 prostate, in the experiment with OVCAR-5 ovarian and in the experiment on MALME-3M melanoma was more than 100 µM throughout. For the same compound, the TGI in the experiment with HS 578T breast and with NCI-H226 lung was more than 100 µM each time.
Consider `COc1ccc(/C=C/c2cc(OC)c(OC)c(OC)c2)cc1`, for which the TGI in the experiment with A498 renal is more than 100 µM; in the experiment on RXF 393 renal, 2.62 µM; in the experiment on NCI-H460 lung, more than 80.6 µM; with OVCAR-5 ovarian, more than 100 µM; in the experiment on MALME-3M melanoma it was 74.3 µM; in the experiment with NCI-H226 lung, more than 87.7 µM.
On to `CSc1nnc(CCC(=O)Nc2c(C)cccc2C)o1`, for which the TGI with A498 renal, in the experiment on RXF 393 renal, in the experiment with NCI-H460 lung, in the experiment with OVCAR-5 ovarian, with MALME-3M melanoma and in the experiment on NCI-H226 lung was more than 100 µM throughout.
